What is called fraction unbound is the share of the substance not bound to proteins or other matrix. As a reminder, the EC50 is the concentration giving half of the maximal effect. One may read the bioavailability as dose-corrected exposure relative to a reference, in per cent. As a reminder, the clearance is the volume of plasma or blood freed of the substance per unit of time. Lower therefore signals inefficient removal. As a reminder, the half-life is how long it takes for the measured level to halve. As a reminder, the solubility is how much of the substance goes into solution per volume. High values mean much dissolved substance, low ones little dissolved substance.

Converted amounts (≈) assume the structure as drawn. “And” between values parts separate entries of the source, which are not always exact repeats. Equal values may be shown once. Read-outs that look alike come from different tables or passages of the source.

Data set [1] in a line: in vitro. As to conditions: mouse, plasma.
Data set [2] deals with VACV. In kind it is in vivo, BALB/c mice. As to conditions: 21 days.
Another data set relates to CPXV. The experiment in a line: microbe, parasite or virus in culture. The class given is cell-based, cowpox virus (Brighton Red strain). As to conditions: Cowpox virus.
The conditions of data set [3]: dog, in vivo; cited from earlier work.
The nature of another data set: in vivo. As to conditions: C57BL/6, mouse.
For data set [4] the following is noted: rat, in vivo; cited from earlier work.
Another data set relates to RPXV. The experiment in a line: microbe, parasite or virus in culture. The class given is cell-based. As to conditions: Rabbitpox virus, RAW264.7.
In data set [5] the test system is VACV. The arrangement: species or system BALB/c mice. As to conditions: mouse, in vivo.
Data set [6] deals with VACV. The experiment in a line: microbe, parasite or virus in culture. The class given is cell-based, vaccinia virus (Western Reserve strain). As to conditions: for EC50: Orthopoxvirus vaccinia.
Another data set is described as follows: physchem. As to conditions: pH 7.4, aqueous buffer.
The subject of data set [7] is NS5B-mediated replication of hepatitis C virus RNA. As to conditions: cited from earlier work.
The subject of data set [8] is VACV. Further details: species or system BALB/c mice. As to conditions: mouse, in vivo. This is another data set of the same source.
Data set [9] in a line: in vitro.
The next data set has as its system MPXV. The class given is cell-based, Mpox virus (West African clade US2003, clade IIa).

Consider `C[C@@]1(O)[C@H](O)[C@@H](CO)O[C@H]1n1cc(F)c2c(N)ncnc21` [UMM-766, 7-fluoro-7-deaza-2′-C-methyladenosine], for which the fraction unbound in “in vitro [1]” was 0.844. In the data set with VACV [2], the survival is 66.7% and 80% and 100%. The EC50 in the data set on CPXV stood at 2170 nM. This compound also showed an EC50 in the data set with CPXV (MRC5) of 8090 nM. The highest tolerable dose in data set [3] is 10 mg/kg. In the data set “in vivo”, the bioavailability came out at 48.8%, the clearance was 154 mL/min/kg and the half-life was 2.9 h. Moreover, the highest tolerable dose in [4] is on record as 10 mg/kg. The EC50 in the data set with RPXV is under 1000 nM. For the same compound, in the data set on VACV [5], the “animals that met euthanasia criteria or died” value is listed as “two”; the “maximum percentage weight change” value is −30.5% and −29.3% and −24.4%; the median survival is recorded as 8 days. In the data set on VACV [6], the “EC50 and EC90 in MRC5 cells relative to RAW cells” value is reported as 3- to 15 fold; the EC50 is under 1000 nM. In the data set “physchem”, the solubility came to 3300 µg/mL (≈ 11.1 mM). The “effect on NS5B-mediated replication of hepatitis C virus RNA” value in data set [7] is given as “decrease NS5B-mediated replication of hepatitis C virus RNA by chain termination”. Besides, in the data set with VACV [8], the “IHC labeling in nasal cavity/turbinates” value was “minimal or absent labeling”; the “hemorrhage in the olfactory bulb” value is given as “completely absent”; the “meningeal necrosis in the olfactory bulb” value was “absent in two 3-mg/kg animals and two 10-mg/kg animals”; the “necrosis of the olfactory epithelium (nasal cavity, H&E)” value is “two animals having minimal necrosis and two with moderate necrosis”. Further, in the data set with VACV [8], the “severity of IHC labeling in nasal cavity/turbinates” value is reported as “markedly reduced” and the “severity/degree of IHC labeling in the lung” value is reported as “mostly mild”. Moreover, the “IHC labeling in nasal cavity/turbinates” value in the data set with VACV [8] (10 mg/kg) is reported as “labeling was absent”.
For `O=C(NN1C(=O)[C@@H]2[C@@H]3C=C[C@@H]([C@H]4C[C@@H]34)[C@@H]2C1=O)c1ccc(C(F)(F)F)cc1` [ST-246], the CC50 in the data set “in vitro [9]” is over 30000 nM. In the data set with MPXV, this compound registered an SI of over 2189.8. For the same compound, in the data set on VACV [6], the SI was >750 and >666.7; the EC50 lay within 1 to 10 nM.

Values taken from PMC10986512 (Microbiology Spectrum, 2024).
